Measured values: paper PMC8691691 (ACS Chemical Neuroscience, 2021)
Numbering of substitutions follows the chain as printed. Like-named read-outs stand apart in the source and are kept apart here.

Assays:
[1] = target: T1, GlyT2 A210C mutant (Rattus norvegicus, UniProt P58295, A210C); experiment: [3H]glycine transport by GlyT2 mutant in COS7 cells; type: cell-based
T1 construct: expressed in transfected cells; host or cells: COS7
T1 sequence (P58295 1-799 A210C): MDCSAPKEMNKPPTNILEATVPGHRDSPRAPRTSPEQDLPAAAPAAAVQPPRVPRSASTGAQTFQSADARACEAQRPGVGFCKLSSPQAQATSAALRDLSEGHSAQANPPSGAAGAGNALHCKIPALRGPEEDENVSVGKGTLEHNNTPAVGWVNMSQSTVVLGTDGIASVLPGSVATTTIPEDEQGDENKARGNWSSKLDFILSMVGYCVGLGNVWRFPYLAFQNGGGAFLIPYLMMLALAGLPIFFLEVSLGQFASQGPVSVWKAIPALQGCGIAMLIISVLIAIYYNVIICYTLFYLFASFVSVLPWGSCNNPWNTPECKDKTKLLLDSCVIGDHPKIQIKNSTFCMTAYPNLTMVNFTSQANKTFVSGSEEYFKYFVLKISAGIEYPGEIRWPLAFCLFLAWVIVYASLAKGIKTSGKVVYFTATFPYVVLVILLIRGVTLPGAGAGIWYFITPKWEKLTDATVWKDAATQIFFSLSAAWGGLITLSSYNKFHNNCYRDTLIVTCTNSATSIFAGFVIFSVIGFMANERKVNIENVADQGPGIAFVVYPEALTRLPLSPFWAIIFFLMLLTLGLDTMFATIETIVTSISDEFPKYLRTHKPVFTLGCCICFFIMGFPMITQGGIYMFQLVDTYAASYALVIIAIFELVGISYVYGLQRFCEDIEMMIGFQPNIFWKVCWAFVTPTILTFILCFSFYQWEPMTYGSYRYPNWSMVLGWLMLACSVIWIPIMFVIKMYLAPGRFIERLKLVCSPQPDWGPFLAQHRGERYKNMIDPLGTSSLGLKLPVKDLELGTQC

[2] = target: T2, GlyT2 L576I mutant (Rattus norvegicus, UniProt P58295, L576I); experiment: as above; type: cell-based; settings: for IC50: read-out: IC50 (Table S1)
T2 construct: expressed in transfected cells; host or cells: COS7
T2 sequence (P58295 1-799 L576I): T1 sequence (P58295 1-799 A210C) with C210A, L576I

[3] = target: T3, GlyT2 W217F mutant (Rattus norvegicus, UniProt P58295, W217F); experiment: as above; type: cell-based
T3 construct: expressed in transfected cells; host or cells: COS7
T3 sequence (P58295 1-799 W217F): T1 sequence (P58295 1-799 A210C) with C210A, W217F

[4] = cited from earlier work

Row | IC50 ([1]; read-out: IC50 (Table S1)) [nM] | IC50 ([3]; read-out: IC50 (Table S1)) [nM] | Compound | effect of mutation on inhibition of glycine transport ([2]; L576I, 1 μM inhibitor, 25 μM glycine) | IC50 [2] [nM] | fraction of the drug that crosses the blood–brain barrier [4] [%] | IC50 [1] [nM] | IC50 [3] [nM] | effect of mutation on inhibition of glycine transport ([3]; W217F, 1 μM inhibitor, 20 μM glycine) | blood–brain barrier crossing (in words) [4]
1 | 23 ± 3 | 23 ± 5 | N[C@@H](COC(c1cccc(F)c1)c1ccccc1OCc1ccccc1)C(=O)O (stereo partly shown) [ALX1393] | prevented the inhibition by ALX1393 to a greater extent than that of ORG25543 | 101 ± 22 | 5 | – | – | – | –
2 | – | – | COc1cc(C(=O)NCC2(N(C)C)CCCC2)cc(OC)c1OCc1ccccc1 [ORG25543, N-[[1-(dimethylamino)cyclopentyl]methyl]-3,5-dimethoxy-4-(phenylmethoxy)benzamide] | – | 111 ± 15 | – | 20 ± 12 | 93 ± 7 | selectively reduced ORG25543 inhibition | can cross the blood–brain barrier
